Measurements reported in ChEMBL document CHEMBL1201862, “PubChem BioAssay data set” (2004).
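These data come from cells grown in 96-well plates and exposed to compound for 48 hours at five concentrations. GI50 marks 50% less growth.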 Calls of active or inactive are those of the source. No stated cut-off is given here; in the data, active = GI50 up to about 1.1 µM and inactive = higher.

Columns and labels:
Assay in all cases: NCI tumour cell line growth inhibition, 48 h
786-0 = tested on: 786-0
A498 = tested on: A498
A549 = tested on: A549
ACHN = tested on: ACHN
BT-549 = tested on: BT-549
CAKI-1 = tested on: CAKI-1
CCRF-CEM = tested on: CCRF-CEM
COLO 205 = tested on: COLO 205
DU-145 = tested on: DU-145
EKVX = tested on: EKVX
HCC 2998 = tested on: HCC 2998
HCT-116 = tested on: HCT-116
HCT-15 = tested on: HCT-15
HL-60 = tested on: HL-60
HOP-92 = tested on: HOP-92
HT-29 = tested on: HT-29
Hs-578T = tested on: Hs-578T
IGROV-1 = tested on: IGROV-1
K562 = tested on: K562
KM12 = tested on: KM12
LOX IMVI = tested on: LOX IMVI
M14 = tested on: M14
MCF7 = tested on: MCF7
MDA-MB-231 = tested on: MDA-MB-231
MDA-MB-435 = tested on: MDA-MB-435
MDA-N = tested on: MDA-N
MOLT-4 = tested on: MOLT-4
Malme-3M = tested on: Malme-3M
NCI-H226 = tested on: NCI-H226
NCI-H23 = tested on: NCI-H23
NCI-H460 = tested on: NCI-H460
NCI-H522 = tested on: NCI-H522
NCI/ADR-RES = tested on: NCI/ADR-RES
OVCAR-3 = tested on: OVCAR-3
OVCAR-4 = tested on: OVCAR-4
OVCAR-5 = tested on: OVCAR-5
OVCAR-8 = tested on: OVCAR-8
PC-3 = tested on: PC-3
RPMI-8226 = tested on: RPMI-8226
RXF 393 = tested on: RXF 393
SF-295 = tested on: SF-295
SF-539 = tested on: SF-539
SK-MEL-28 = tested on: SK-MEL-28
SK-MEL-2 = tested on: SK-MEL-2
SK-MEL-5 = tested on: SK-MEL-5
SK-OV-3 = tested on: SK-OV-3
SNB-19 = tested on: SNB-19
SNB-75 = tested on: SNB-75
SR = tested on: SR
SW-620 = tested on: SW-620
T47D = tested on: T47D
TK-10 = tested on: TK-10
U-251 = tested on: U-251
UACC-257 = tested on: UACC-257
UACC-62 = tested on: UACC-62
UO-31 = tested on: UO-31
HOP-62 = tested on: HOP-62
SF-268 = tested on: SF-268
SN12C = tested on: SN12C

For `CC(=O)Nc1cc2c3c(c1)CCCN3CCC2`, the GI50 (786-0) was > 100 µM (inactive), the GI50 (A498) was > 100 µM (inactive) and the GI50 (A549) was > 100 µM (inactive). The GI50 (ACHN) was > 100 µM (inactive), the GI50 (BT-549) was > 100 µM (inactive) and the GI50 (CAKI-1) was > 100 µM (inactive). The GI50 (CCRF-CEM) was > 100 µM (inactive), the GI50 (COLO 205) was > 100 µM (inactive) and the GI50 (DU-145) was > 100 µM (inactive). For the same compound, the GI50 (EKVX) was 64.9 µM (inactive), the GI50 (HCC 2998) was > 100 µM (inactive) and the GI50 (HCT-116) was > 100 µM (inactive). For the same compound, the GI50 (HCT-15) was over 100 µM, the GI50 (HL-60) was > 100 µM (inactive) and the GI50 (HOP-92) was > 100 µM (inactive). The GI50 (HT-29) was > 100 µM (inactive), the GI50 (Hs-578T) was > 100 µM (inactive) and the GI50 (IGROV-1) was > 100 µM (inactive). The GI50 (K562) was > 100 µM (inactive), the GI50 (KM12) was > 100 µM (inactive) and the GI50 (LOX IMVI) was > 100 µM (inactive). The GI50 (M14) was > 100 µM (inactive), the GI50 (MCF7) was > 100 µM (inactive) and the GI50 (MDA-MB-231) was > 100 µM (inactive). The GI50 (MDA-MB-435) was > 100 µM (inactive), the GI50 (MDA-N) was > 100 µM (inactive) and the GI50 (MOLT-4) was > 100 µM (inactive). The GI50 (Malme-3M) was > 100 µM (inactive), the GI50 (NCI-H226) was > 100 µM (inactive) and the GI50 (NCI-H23) was > 100 µM (inactive). For the same compound, the GI50 (NCI-H460) was > 100 µM (inactive), the GI50 (NCI-H522) was > 100 µM (inactive) and the GI50 (NCI/ADR-RES) was > 100 µM (inactive). For the same compound, the GI50 (OVCAR-3) was > 100 µM (inactive), the GI50 (OVCAR-4) was > 100 µM (inactive) and the GI50 (OVCAR-5) was > 100 µM (inactive). The GI50 (OVCAR-8) was > 100 µM (inactive), the GI50 (PC-3) was > 100 µM (inactive) and the GI50 (RPMI-8226) was > 100 µM (inactive). For the same compound, the GI50 (RXF 393) was > 100 µM (inactive), the GI50 (SF-295) was > 100 µM (inactive) and the GI50 (SF-539) was > 100 µM (inactive). For the same compound, the GI50 (SK-MEL-28) was > 100 µM (inactive), the GI50 (SK-MEL-2) was > 100 µM (inactive) and the GI50 (SK-MEL-5) was > 100 µM (inactive). For the same compound, the GI50 (SK-OV-3) was > 100 µM (inactive), the GI50 (SNB-19) was > 100 µM (inactive) and the GI50 (SNB-75) was 65.5 µM (inactive). For the same compound, the GI50 (SR) was > 100 µM (inactive), the GI50 (SW-620) was > 100 µM (inactive) and the GI50 (T47D) was 44.6 µM (inactive). For the same compound, the GI50 (TK-10) was > 100 µM (inactive), the GI50 (U-251) was > 100 µM (inactive) and the GI50 (UACC-257) was > 100 µM (inactive). For the same compound, the GI50 (UACC-62) was > 100 µM (inactive) and the GI50 (UO-31) was > 100 µM (inactive).

For `COC1(OC)C2(Cl)C(Cl)=C(Cl)C1(Cl)C1COCC12` (stereo unspecified), the GI50 (786-0) was > 100 µM (inactive), the GI50 (A498) was > 100 µM (inactive) and the GI50 (A549) was > 100 µM (inactive). The GI50 (ACHN) was > 100 µM (inactive), the GI50 (BT-549) was > 100 µM (inactive) and the GI50 (CAKI-1) was > 100 µM (inactive). For the same compound, the GI50 (CCRF-CEM) was > 100 µM (inactive), the GI50 (COLO 205) was > 100 µM (inactive) and the GI50 (DU-145) was 13.4 µM (inactive). For the same compound, the GI50 (HCC 2998) was > 100 µM (inactive), the GI50 (HCT-15) was over 100 µM and the GI50 (HL-60) was > 61.4 µM (inactive). For the same compound, the GI50 (HOP-62) was > 100 µM (inactive), the GI50 (HOP-92) was > 81.3 µM (inactive) and the GI50 (HT-29) was > 100 µM (inactive). For the same compound, the GI50 (Hs-578T) was > 100 µM (inactive), the GI50 (IGROV-1) was > 100 µM (inactive) and the GI50 (K562) was > 88.5 µM (inactive). For the same compound, the GI50 (KM12) was > 100 µM (inactive), the GI50 (LOX IMVI) was > 100 µM (inactive) and the GI50 (M14) was > 100 µM (inactive). For the same compound, the GI50 (MCF7) was > 100 µM (inactive), the GI50 (MDA-MB-231) was > 100 µM (inactive) and the GI50 (MDA-MB-435) was 30.8 µM (inactive). For the same compound, the GI50 (MDA-N) was > 20.4 µM (inactive), the GI50 (MOLT-4) was > 100 µM (inactive) and the GI50 (Malme-3M) was > 100 µM (inactive). The GI50 (NCI-H226) was > 100 µM (inactive), the GI50 (NCI-H23) was > 45 µM (inactive) and the GI50 (NCI-H460) was > 100 µM (inactive). For the same compound, the GI50 (NCI-H522) was > 100 µM (inactive), the GI50 (NCI/ADR-RES) was > 100 µM (inactive) and the GI50 (OVCAR-3) was > 100 µM (inactive). For the same compound, the GI50 (OVCAR-4) was > 100 µM (inactive), the GI50 (OVCAR-5) was > 100 µM (inactive) and the GI50 (OVCAR-8) was > 100 µM (inactive). For the same compound, the GI50 (PC-3) was > 100 µM (inactive), the GI50 (RPMI-8226) was > 72.4 µM (inactive) and the GI50 (RXF 393) was > 100 µM (inactive). The GI50 (SF-268) was > 100 µM (inactive), the GI50 (SF-295) was > 100 µM (inactive) and the GI50 (SF-539) was > 100 µM (inactive). For the same compound, the GI50 (SK-MEL-28) was > 38.7 µM (inactive), the GI50 (SK-MEL-2) was > 100 µM (inactive) and the GI50 (SK-MEL-5) was > 100 µM (inactive). For the same compound, the GI50 (SK-OV-3) was > 100 µM (inactive), the GI50 (SN12C) was > 100 µM (inactive) and the GI50 (SNB-19) was > 100 µM (inactive). For the same compound, the GI50 (SNB-75) was > 100 µM (inactive), the GI50 (SR) was > 75.3 µM (inactive) and the GI50 (SW-620) was > 100 µM (inactive). For the same compound, the GI50 (T47D) was > 100 µM (inactive), the GI50 (TK-10) was > 40.7 µM (inactive) and the GI50 (U-251) was > 44.5 µM (inactive). For the same compound, the GI50 (UACC-257) was > 100 µM (inactive), the GI50 (UACC-62) was > 100 µM (inactive) and the GI50 (UO-31) was > 100 µM (inactive).

In the case of `O=C1Oc2ccccc2C1C/C(=N\Nc1ccccc1)c1ccccc1O` (stereo unspecified), the GI50 (786-0) is reported as 36.1 µM (inactive), the GI50 (A498) is reported as 33.7 µM (inactive) and the GI50 (A549) is reported as 50 µM (inactive). For the same compound, the GI50 (ACHN) was 16.6 µM (inactive), the GI50 (BT-549) was 28.6 µM (inactive) and the GI50 (CAKI-1) was 25.6 µM (inactive). For the same compound, the GI50 (CCRF-CEM) was 62.1 µM (inactive), the GI50 (COLO 205) was 15 µM (inactive) and the GI50 (DU-145) was 40.7 µM (inactive). For the same compound, the GI50 (EKVX) was 26.5 µM (inactive), the GI50 (HCC 2998) was 34.8 µM (inactive) and the GI50 (HCT-116) was 28.4 µM (inactive). The GI50 (HCT-15) was 34.3 µM, the GI50 (HL-60) was 34.2 µM (inactive) and the GI50 (HOP-62) was 53.3 µM (inactive). For the same compound, the GI50 (HOP-92) was 25.6 µM (inactive), the GI50 (HT-29) was 28.4 µM (inactive) and the GI50 (Hs-578T) was 74.5 µM (inactive). For the same compound, the GI50 (IGROV-1) was 17 µM (inactive), the GI50 (KM12) was 7.46 µM (inactive) and the GI50 (LOX IMVI) was 11.5 µM (inactive). For the same compound, the GI50 (M14) was 50.8 µM (inactive), the GI50 (MCF7) was 36.5 µM (inactive) and the GI50 (MDA-MB-231) was 28.9 µM (inactive). For the same compound, the GI50 (MDA-MB-435) was 27.2 µM (inactive), the GI50 (MDA-N) was 44.5 µM (inactive) and the GI50 (MOLT-4) was 29.9 µM (inactive). For the same compound, the GI50 (Malme-3M) was 41.3 µM (inactive), the GI50 (NCI-H226) was 28.8 µM (inactive) and the GI50 (NCI-H23) was 22.2 µM (inactive). For the same compound, the GI50 (NCI-H460) was 34.4 µM (inactive), the GI50 (NCI-H522) was 38.2 µM (inactive) and the GI50 (NCI/ADR-RES) was 20.8 µM (inactive). The GI50 (OVCAR-3) was 32.8 µM (inactive), the GI50 (OVCAR-4) was 32.7 µM (inactive) and the GI50 (OVCAR-5) was > 100 µM (inactive). The GI50 (OVCAR-8) was 32.4 µM (inactive), the GI50 (PC-3) was 30.2 µM (inactive) and the GI50 (RPMI-8226) was 45.2 µM (inactive). For the same compound, the GI50 (RXF 393) was 53.7 µM (inactive), the GI50 (SF-268) was 25.7 µM (inactive) and the GI50 (SF-295) was 33.7 µM (inactive). For the same compound, the GI50 (SF-539) was 53 µM (inactive), the GI50 (SK-MEL-28) was 33.7 µM (inactive) and the GI50 (SK-MEL-2) was 35.5 µM (inactive). For the same compound, the GI50 (SK-MEL-5) was 33.9 µM (inactive), the GI50 (SK-OV-3) was 62.1 µM (inactive) and the GI50 (SN12C) was 42 µM (inactive). The GI50 (SNB-19) was > 100 µM (inactive), the GI50 (SNB-75) was 56.8 µM (inactive) and the GI50 (SR) was 27.4 µM (inactive). The GI50 (SW-620) was 29.9 µM (inactive), the GI50 (T47D) was 11.3 µM (inactive) and the GI50 (TK-10) was 48.9 µM (inactive). For the same compound, the GI50 (U-251) was 40.3 µM (inactive), the GI50 (UACC-257) was 28.8 µM (inactive) and the GI50 (UACC-62) was 33.9 µM (inactive). The GI50 (UO-31) was 23.3 µM (inactive).
